Reference: US12304912B2, “Fused bicyclic RAF inhibitors and methods for use thereof” (Jazz Pharmaceuticals Ireland Limited, priority 2020, dated 2025)

Tests used:
[1] = Microsomal stability assay, mouse liver microsomes (MLM); type: in vitro ADME; conditions: 0.5 mg/mL protein, 1 μM substrate
Description: (§1) Microsomal Stability Assay
(§2) The stability studies were performed manually using the substrate depletion approach. Test compounds were incubated at 37° C. with cryo-preserved mouse or human liver microsomes (Corning) at a protein concentration of 0.5 mg·mL^−1 and a final substrate concentration of 1 μM. Aliquots were removed from the incubation at defined timepoints and the reaction was terminated by adding to ice-cold organic solvent. Compound concentrations were determined by LC-MS/MS analysis. The natural log of the percentage of compound remaining was plotted against each time point and the slope determined. The half-life (t1/2) and CLint were calculated using Equations 1 and 2, respectively.
(§3) HLM (human liver microsomes) and MLM (mouse liver microsomes) stability assay results are described in Tables 1-2.

[2] = system: BRAF monomers in A375 cells; experiment: A375 AlphaLISA SureFire pERK1/2 cellular assay (monomer); type: cell-based; conditions: Homo sapiens, A-375; A375 cells, 1 hr; read-out: pERK A375 (1 hr) pIC50 (converted)
Description: (§4) The human HCT-116 colorectal carcinoma cell line (ATCC CCL-247) endogenously expresses the KRAS^G13D mutation, which leads to constitutive activation of the MAP kinase pathway and phosphorylation of ERK. […] Assay read outs took place 2 or 24 hours after dosing with compounds. On the first day, HCT-116 cells were harvested, resuspended in growth medium (McCoys5A with Glutamax (Life Technologies 36600021) and 10% heat-inactivated fetal bovine serum (Sigma F9665)), and counted. Cells were plated in 100 μl per well in each well of a 96-well culture dish (Sigma CLS3598) to a final density of 30,000 (2 hr read) or 15,000 (24 hr read) cells per well and incubated over night at 37° C. and 5% CO2. On day 2, the growth medium was exchanged for dosing medium (McCoys5A with Glutamax (Life Technologies 36600021) and 1% heat-inactivated fetal bovine serum (Sigma F9665)) and the cells were dosed with compounds to produce a 10-point dose response, where the top concentration was 1 μM and subsequent concentrations were at 1/3 log dilution intervals. A matched DMSO control was included. The cells were subsequently incubated for either 2 or 24 hours at 37° C. and 5% CO2. After incubation, media was removed and the cells were incubated with lysis buffer containing phosphatase inhibitors for 15 minutes at room temperature. Cell lysates were transferred to a 12 area 96 well white Optiplate™ (Perkin Elmer 6005569) and incubated with anti-mouse IgG acceptor beads, a biotinylated anti-ERK1/2 rabbit antibody recognizing both phosphorylated and non-phosphorylated ERK1/2, a mouse antibody targeted to the Thr202/Tyr204 epitope and recognizing phosphorylated ERK proteins only, and streptavidin-coated donor beads. The biotinylated antibody binds to the streptavidin-coated donor beads and the phopsho-ERK1/2 antibody binds to the acceptor beads. Plates were read on an EnVision reader (Perkin Elmer) and excitation of the beads at 680 nm with a laser induced the release of singlet oxygen molecules from the donor beads that trigger energy transfer to the acceptor beads in close proximity, producing a signal that can be measured at […]. Both antibodies bound to phosphorylated ERK proteins, bringing the donor and acceptor beads into close proximity. All data were analyzed using the Dotmatics or GraphPad Prism software packages. Inhibition of ERK phosphorylation was assessed by determination of the absolute IC50 value, which is defined as the concentration of compound required to decrease the level of phosphorylated ERK proteins by 50% when compared to DMSO control.
A375 AlphaLISA SureFire pERK1/2 Cellular Assay (Monomer)
The human A375 melanoma cell line (ATCC CRL-1619) endogenously expresses the BRAF^V600E mutation, which leads to constitutive activation of the MAP kinase pathway and phosphorylation of ERK. In BRAF^V600E mutant tumours, BRAF signals as a monomer to activate ERK. To determine whether compounds can inhibit BRAF monomers in A375 cells, they were tested using AlphaLISA® SureFire® technology (Perkin Elmer p-ERK1/2 p-T202/Y204 assay kit ALSU-PERK-A10K). The main procedure is essentially the same as described above for HCT-116 cells, with the following adjustments: The A375 cells were cultivated and dosed in Dulbecco's modified Eagle's medium containing 4.5 g/L D-glucose (Sigma D6546), 10% heat-inactivated fetal bovine serum (Sigma F9665), and 1% Sodium-Pyruvate (Sigma S8636), and seeded with a seeding density of 30,000 cells per well. No media exchange was performed before dosing with compounds to produce a 10-point dose response, where the top concentration was 10 μM and subsequent concentrations were at 1/2 log dilution intervals. Subsequently, the cells were incubated for 1 hour at 37° C. and 5% CO2 before lysis.

[3] = Solubility (Sol), medium not stated; type: physicochemical; conditions: cells not marked (FESSIF)
[4] = system: RAF dimers in HCT-116 cells; experiment: HCT-116 AlphaLISA SureFire pERK1/2 cellular assay (dimer); type: cell-based; conditions: Homo sapiens, HCT-116; HCT116 cells pre-dosed with 1 μM Encorafenib, 1 hr; read-out: pERK HCT116 dimer (1 hr) pIC50 (converted)
Description: as §4
HCT-116 AlphaLISA SureFire pERK1/2 Cellular Assay (Dimer)
The human HCT-116 colorectal carcinoma cell line (ATCC CCL-247) endogenously expresses the KRAS^G13D mutation, which leads to constitutive activation of the MAP kinase pathway and phosphorylation of ERK. First generation RAF inhibitors can promote RAF dimer formation in KRAS mutant tumours leading to a paradoxical activation of the pathway. To determine whether compounds can circumvent this problem and inhibit RAF dimers in HCT-116 cells, they were tested using AlphaLISA® SureFire® technology (Perkin Elmer p-ERK1/2 p-T202/Y204 assay kit ALSU-PERK-A10K). The main procedure is essentially the same as described above, with the following adjustments: Cells were seeded with the seeding density of 30,000 cells per well. On the second day (the day of dosing) no medium change was performed and the cells were dosed with 1 μM of Encorafenib for 1 hour (at 37° C. and 5% CO2) to induce RAF dimers and promote paradoxical dimer-dependent pERK signalling. After incubation, the cells were washed, 100 μl fresh growth medium was added, and cells were dosed with compounds of interest to produce a 10-point dose response, where the top concentration was 10 μM and subsequent concentrations are at 1/2 log dilution intervals. Cells were incubated for another hour at 37° C. and 5% CO2 before lysis and processing with the pERK AlphaLISA® SureFire® kit as described above. […]

[5] = Plasma protein binding assay, mouse plasma (mPPB); type: in vitro ADME; conditions: 5 μM, equilibrium dialysis 4 hours 37° C.
Description: (§5) Plasma Protein Binding Assay The plasma protein binding was determined by the equilibrium dialysis method. A known concentration of compound (5 μM) in previously frozen human or mouse plasma (Sera Labs) was dialysed against phosphate buffer using a RED device (Life Technologies) for 4 hours at 37° C. The concentration of compound in the protein containing (PC) and protein free (PF) sides of the dialysis membrane were determined by LC-MS/MS and the % free compound was determined by equation 4. Data analysis was performed using Excel (Microsoft, USA). % free=(1−((PC−PF)/PC))×100 (4) hPPB (human plasma protein binding) and mPPB (mouse plasma protein binding) results are described in Tables 1-2.

[6] = Microsomal stability assay, human liver microsomes (HLM); type: in vitro ADME; conditions: 0.5 mg/mL protein, 1 μM substrate
Description: as §1, §2, §3

[7] = Plasma protein binding assay, human plasma (hPPB); type: in vitro ADME; conditions: 5 μM, equilibrium dialysis 4 hours 37° C.
Description: as §5

| Structure (SMILES) | microsomal CLint at 1 μM [1] | IC50 [2] | Sol [3] | IC50 [4] | mPPB (% free) [5] | microsomal CLint at 1 μM [6] | hPPB (% free) [7] |
| --- | --- | --- | --- | --- | --- | --- | --- |
| COc1ccccc1-c1cc(C2COc3ccc(Oc4ccnc5c4CCC(=O)N5)cc3C2)[nH]n1 (stereo not shown) [Compound 40] | 27.1 µL/min/mg | 251 nM | <1.2 mg/L | 324 nM |  |  |  |
| O=C1CCc2c(Oc3ccc4c(c3)CC(c3nc5cc(C(F)(F)F)cc(Cl)c5[nH]3)CO4)ccnc2N1 (stereo not shown) [Compound 30] |  | 162 nM | <1.3 mg/L | 1320 nM |  |  |  |
| O=C1CCc2c(Oc3ccc4c(c3)CC(c3cc(-c5ccccc5Cl)n[nH]3)CO4)ccnc2N1 (stereo not shown) [Compound 36] | 18.4 µL/min/mg | 525 nM | <1.2 mg/L | 174 nM | <0.1 % free | 23.5 µL/min/mg |  |
| O=C1CCc2c(Oc3ccc4c(c3)CN(C(=O)NCc3ccccc3)CC4)ccnc2N1 [Compound 48] | 38.4 µL/min/mg | 9120 nM | <1.1 mg/L | 7240 nM | 3 % free | 40.5 µL/min/mg | 2 % free |
| COc1ccc(-c2c[nH]c(C3COc4ccc(Oc5ccnc6c5CCC(=O)N6)cc4C3)n2)cc1 (stereo not shown) [Compound 10, 5-[3-[4-(4-methoxyphenyl)-1H-imidazol-2-yl]chroman-6-yl]oxy-3,4-dihydro-1H-1,8-naphthyridin-2-one] | 45.9 µL/min/mg | 832 nM | <1.2 mg/L | 282 nM | 0.7 % free | 89.1 µL/min/mg | 0.6 % free |
| CN(C)Cc1cc(-c2c[nH]c(C3COc4ccc(Oc5ccnc6c5CCC(=O)N6)cc4C3)n2)cc(C(F)(F)F)c1 (stereo not shown) [Compound 7, 5-[3-[4-[3-[(dimethylamino)methyl]-5-(trifluoromethyl)phenyl]-1H-imidazol-2-yl]chroman-6-yl]oxy-3,4-dihydro-1H-1,8-naphthyridin-2-one] | 39.2 µL/min/mg | 692 nM | <1.4 mg/L | 191 nM | 0.9 % free | 67.9 µL/min/mg | 1.9 % free |
| c1ccc(-c2c[nH]c(C3COc4ccc(OC5CCOCC5)cc4C3)n2)cc1 (stereo not shown) [compound 51] | 123 µL/min/mg |  | 1.2 mg/L |  | 2.6 % free | 156 µL/min/mg | 0.5 % free |
| O=C1CCc2c(Oc3ccc4c(c3)CC(c3cc(-c5ccc(C(F)(F)F)cc5)n[nH]3)CO4)ccnc2N1 (stereo not shown) [Compound 38] | 4.3 µL/min/mg | 8510 nM | <1.3 mg/L | 3980 nM |  | 3 µL/min/mg |  |
| O=C1CCc2c(Oc3ccc4c(c3)CC(c3cc(-c5cccc(Cl)c5)n[nH]3)CO4)ccnc2N1 (stereo not shown) [Compound 37] | 18.4 µL/min/mg | 501 nM | <1.2 mg/L | 339 nM |  |  |  |
| COc1cccc(-c2cc(C3COc4ccc(Oc5ccnc6c5CCC(=O)N6)cc4C3)[nH]n2)c1 (stereo not shown) [Compound 41] | 46.1 µL/min/mg | 513 nM | <1.2 mg/L | 302 nM | 1.2 % free |  |  |
| O=C1CCc2c(Oc3ccc4c(c3)CC(c3cc(-c5cccc(C(F)(F)F)c5)n[nH]3)CO4)ccnc2N1 (stereo not shown) [Compound 42] | 22 µL/min/mg | 891 nM | <1.3 mg/L | 741 nM | <0.1 % free | 10.6 µL/min/mg |  |
| O=C1CCc2c(Oc3ccc4c(c3)CC(c3cc(-c5ccccc5C(F)(F)F)n[nH]3)CO4)ccnc2N1 (stereo not shown) [Compound 35, 5-[3-[3-[2-(trifluoromethyl)phenyl]-1H-pyrazol-5-yl]chroman-6-yl]oxy-3,4-dihydro-1H-1,8-naphthyridin-2-one] | 42.1 µL/min/mg | 2450 nM | <1.3 mg/L | 525 nM |  | 277 µL/min/mg | <0.1 % free |
| O=C1CCc2c(Oc3ccc4c(c3)CN(C(=O)Nc3ccccc3)CC4)ccnc2N1 [Compound 46, 7-[(7-oxo-6,8-dihydro-5H-1,8-naphthyridin-4-yl)oxy]-N-phenyl-3,4-dihydro-1H-isoquinoline-2-carboxamide] | 45.5 µL/min/mg |  | <1 mg/L |  | 2.3 % free | 18.4 µL/min/mg | 1.9 % free |
| CN(C)Cc1cc(C(F)(F)F)c2nc(C3COc4ccc(Oc5ccnc6c5CCC(=O)N6)cc4C3)[nH]c2c1 (stereo not shown) [Compound 34] | 8.6 µL/min/mg | 4470 nM | 28.7 mg/L |  | 3.2 % free | 46.9 µL/min/mg | 0.7 % free |
| N#Cc1cccc(-c2c[nH]c(C3COc4ccc(Oc5ccnc6c5CCC(=O)N6)cc4C3)n2)c1 (stereo not shown) [Compound 16, 3-[2-[6-[(7-oxo-6,8-dihydro-5H-1,8-naphthyridin-4-yl)oxy]chroman-3-yl]-1H-imidazol-4-yl]benzonitrile] |  | 575 nM | <1.2 mg/L | 617 nM |  |  |  |
